One compound from patent US11590101B2, “Use of a composition comprising 7-hydroxymatairesinol” (LINNEA S.A., priority 2017, dated 2023) can be followed below.

The nature of series [1]: Oxidative stress evaluation (plasma GSH/GSSG, Glutathione assay kit). As to conditions: POST group; not reaching statistical significance. The series is classed as in vivo, rat. The procedure: Plasma levels of reduced (GSH) and oxidized (GSSG) glutathione were estimated by using a biochemical Glutathione assay kit (Cayman Chemical), as an index of antioxidant effect of HMR treatment.
Results were expressed as a GSH/GSSG ratio.
Since no significant difference in neuroinflammation was observed between vehicle-treated animals and animals that received HMR before the intra-striatal injection of 6-OHDA, oxidative stress was evaluated only in the groups treated with HMR after 6-OHDA infusion.

Series [2] relates to rodent model of Parkinson's disease-like nigrostriatal neurodegeneration caused by stereotaxic injection of 6-OHDA. The series can be described thus: Nigrostriatal damage evaluation by TH immunohistochemistry in 6-OHDA model. The series is classed as in vivo, rat.
Series [3] relates to microglia in the lesioned SNc. Nature of the series: Analysis of microglia polarization (CD32+ M1 / CD206+ M2). The series is classed as in vivo, rat. As to conditions: POST group; vehicle mainly M1, no M2 detected. The procedure: The analysis of microglia polarization was performed by evaluating the percentage of CD32+ and CD206+ cells, respectively M1 and M2 phenotypes marker, of the total microglia cells in the lesioned SNc, using respectively CD32 or CD206 (Santa Cruz, 1:300) antibodies.
Since no significant differences in microglial activation were observed between vehicle-treated animals and animals that received HMR before the intra-striatal injection of 6-OHDA, microglia polarization was evaluated only in the groups treated with HMR after 6-OHDA infusion.

The nature of series [4]: Food consumption and body weight monitoring. As to conditions: monitored daily throughout the experiments. The series is classed as in vivo, rat. The text has this: Food consumption and body weight changes were monitored daily.
In series [5] the test system is microglia in the lesioned SNc. Nature of the series: Neuroinflammation evaluation through microglia activation assessment (CD11b staining of lesioned SNc). The series is classed as in vivo, rat. As to conditions: for Colburn's score (microglia morphology): control group ++. Also noted: key to Colburn's score (microglia morphology): Resting stage (score 0): microglial cells are ramified, well spaced-out, with a small cell body.; Stage 1 (score +): microglial cells are ramified, with a decreased intercellular space.; Stage 2 (score ++): microglial cells show a loss of ramification and increased density.; Stage 3 (score +++): microglial cells show short and think ramifications. The method, then: The evaluation of the 6-OHDA induced neuroinflammation was carried out via immunofluorescent staining of coronal SNc sections of both HMR-treated and control animals.
Microglia activation was assessed by observing sections of the lesioned SNc stained for CD11 b, under low and medium magnification (20×-40×), both quantitatively, by counting the microglial cells in the lesioned SNc, and qualitatively, analysing the morphological changes of the cells.
Mouse anti CD11b (MCA275R, Serotec, 1:300) primary antibody was used to assess microglia activation and density in the SNc. Anti-TH primary antibody was added for localization and cell count. Goat anti-mouse AlexaFluor488 and goat anti-rabbit AlexaFluor594 (Life Sciences, 1:300) were used as secondary antibodies.
Cell count was performed by analysing three different SNc sections, chosen according to rostro-caudal coordinates.
Morphological changes mirroring the state of activation were scored according to the Colburn scale. Cell density was assessed by counting CD11 b+ cells from a stack of 16 pictures (in a 0.04 mm^2 frame, 1 μm-thick, 40× magnification) taken from three discrete areas of the same SNc section.
Colburn's scale takes into account four activation stages, which differ for the cells morphology and density, and are summarized below.
Resting stage (score 0): microglial cells are ramified, well spaced-out, with a small cell body.
Stage 1 (score +): microglial cells are ramified, with a decreased intercellular space.
Stage 2 (score ++): microglial cells show a loss of ramification and increased density.
Stage 3 (score +++): microglial cells show short and think ramifications.

The nature of series [6]: HMR plasma levels assay (LC-MS/MS). It is filed as in vivo. As to conditions: rat, oral, rats fed 4 weeks with 5% sucrose enriched food with HMR (10 mg/Kg per day), all active treatment groups. The procedure:
Concentration of HMR and its major metabolite enterolactone was measured in plasma samples (50 μL) from rats fed for 4 weeks with 5% sucrose enriched food with HMR, using an LC-MS/MS system (AP14500 Qtrap ABSciex).
Calibration curves in the range from 0.1 ng/mL to 100 ng/mL were obtained from measurements on control samples containing the pure analytes, prepared from stock solutions of HMR and enterolactone in MeOH at the concentration of 1 mg/mL. Said stock solutions were diluted in acetonitrile (ACN) at a concentration of 250 μg/mL, then working solutions were prepared by sequential dilution in ACN.
45 μL of plasma and 5 μL of working solution were added to 300 μL of an ACN solution containing the internal standard catechin (conc. 200 ng/mL). After mixing, samples were centrifuged for 5 min at 3000 g at 5° C., and injected into LC-MS/MS.
The plasma samples from the in vivo treatment were prepared subjecting 50 μl of sample to centrifugation for 5 min at 3000 g at 5° C., and were injected into LC-MS/MS.
Calibration curves allowed determining, by comparison, the amount of each analytes in the plasma samples obtained from the rats of the study.

Setting [7] is: PRE group, day 28 post-surgery, same in HMR-treated and control animals.

Turning to `COc1cc(CC2C(=O)OCC2C(O)c2ccc(O)c(OC)c2)ccc1O` (centres unmarked) [HMR, 7-hydroxymatairesinol], the “Plasma GSH/GSSG ratio versus vehicle-treated animals” value in series [1] is listed as “trend toward an increased GSH/GSSG ratio”. For the same compound, the “Reduction of TH+ terminal loss in lesioned striatum versus control” value in series [2] (POST group: HMR 10 mg/Kg per day for 4 weeks after 6-OHDA, day 28, p<0.05) is given as “about 32%”. Moreover, the “Reduction of the 6-OHDA induced loss of TH+ neurons in lesioned SNc versus vehicle” value in series [2] (POST group: HMR 10 mg/Kg per day for 4 weeks after 6-OHDA, day 28, p=0.055) is “about 20%”. For the same compound, the “TH+ neurons depletion in the SNc, lesioned side versus contralateral hemisphere” value in series [2] (setting [7]) is recorded as “up to 55%”. The “TH+ terminals loss in the striatum, lesioned side” value in series [2] (setting [7]) is no more than 65%. Moreover, the “Nigrostriatal damage (striatal or SNc level) versus vehicle-treated animals” value in series [2] (PRE group: HMR 10 mg/Kg per day in food for 4 weeks before 6-OHDA) is on record as “no differences in nigrostriatal damage”. In series [3], the “Microglia polarization phenotype (M1 CD32+ / M2 CD206+)” value is “mainly oriented toward the neuroprotective, M2 (CD11b+/CD206+) phenotype”. In addition, the “Food intake or weight gain, treated versus untreated rats” value in series [4] is “No differences”. Moreover, the “Colburn's score (microglia morphology)” value in series [5] (POST group (HMR after 6-OHDA)) is “+”; in series [5] (PRE group (HMR before 6-OHDA)), “++”. Besides, the “Density of CD11b+ cells in the SNc” value in series [5] (POST group, vehicle-treated group 750 cells/mm^2, significant decrease) was found to be 550 cells/mm^2. Also, in series [5] (PRE group), the “Microglial cell count versus vehicle-treated animals” value is reported as “no differences in the microglial cell count”. For the same compound, the “Number of CD11b+ cells per mm^2 of SNc” value in series [5] (PRE group, average, both HMR and vehicle groups) turned out to be 750 cells/mm^2. In series [6], this compound registered a concentration at 4 weeks of 0.92 ± 0.74 ng/mL.
